Results from patent publication US6410485B1, “Saccharin-5-carbonyl derivatives with herbicidal effect” (BASF Aktiengesellschaft, priority 1999, dated 2002).

Legend:
Assay type in all cases: in vivo
[1] = system: Glycine max (GLXMA); test: greenhouse test, preemergence treatment, soybean; conditions: 100 = no emergence or complete destruction, 0 = no damage
Excerpt: (§1) It was possible to show the herbicidal action of the saccharin-5-carbonyl derivatives of the formula I by means of greenhouse tests: The cultivation containers used were plastic pots containing loamy sand with approximately 3.0% humus as a substrate. The seeds of the test plants were sown separately according to species. In the case of preemergence treatment, the active compounds suspended or emulsified in water were applied directly after sowing by means of finely dispersing nozzles. The containers were lightly watered in order to promote germination and growth, and then covered with transparent plastic hoods until the plants had taken root. This covering causes uniform germination of the test plants if this is not adversely affected by the active compounds. The application rate for preemergence treatment was 0.125 or 0.0625 kg/ha of a.s. The plants were kept species-specifically at temperatures of 10-25° C. or 20-35° C. The test period extended over 2 to 4 weeks. During this time, the plants were tended, and their reaction to the individual treatments was assessed. Assessment was carried out on a scale from 0 to 100. In this case, 100 means no emergence of the plants or complete destruction at least of the above-ground parts and 0 means no damage or a normal course of growth. The plants used in the greenhouse tests were made up of the following species: [table]

[2] = system: Chenopodium album (CHEAL); test: greenhouse test, preemergence treatment, lambsquarter; conditions: 100 = no emergence or complete destruction, 0 = no damage
Excerpt: as §1

[3] = system: digitaria sanguinalis (DIGSA); test: greenhouse test, preemergence treatment, large crabgrass; conditions: 100 = no emergence or complete destruction, 0 = no damage
Excerpt: as §1

[4] = system: Echinochloa crus galli (ECHCG); test: greenhouse test, preemergence treatment, common barnyard grass; conditions: 100 = no emergence or complete destruction, 0 = no damage
Excerpt: as §1

[5] = system: Setaria viridis (SETVI); test: greenhouse test, preemergence treatment, green foxtail; conditions: 100 = no emergence or complete destruction, 0 = no damage
Excerpt: as §1

[6] = system: weed grasses and broad-leaved plants; test: greenhouse test, preemergence treatment, overall statement; conditions: 0.125 and 0.0625 kg/ha a.s.
Excerpt: as §1, with “[table]” left out

SMILES: Cc1c(C(=O)C2=C(O)C3CCC(C3)C2=O)ccc2c1C(=O)N(C)S2(=O)=O (centres unmarked) [Compound 1.1]
- damage assessment on a scale from 0 to 100 (GLXMA) ([1]; 0.0625 kg/ha of a.s.): 0
- damage assessment on a scale from 0 to 100 (GLXMA) ([1]; 0.125 kg/ha of a.s.): 0
- damage assessment on a scale from 0 to 100 (CHEAL) ([2]; 0.0625 kg/ha of a.s.): 98
- damage assessment on a scale from 0 to 100 (CHEAL) ([2]; 0.125 kg/ha of a.s.): 98
- damage assessment on a scale from 0 to 100 (DIGSA) ([3]; 0.0625 kg/ha of a.s.): 98
- damage assessment on a scale from 0 to 100 (DIGSA) ([3]; 0.125 kg/ha of a.s.): 98
- damage assessment on a scale from 0 to 100 (ECHCG) ([4]; 0.0625 kg/ha of a.s.): 98
- damage assessment on a scale from 0 to 100 (ECHCG) ([4]; 0.125 kg/ha of a.s.): 98
- damage assessment on a scale from 0 to 100 (SETVI) ([5]; 0.0625 kg/ha of a.s.): 98
- damage assessment on a scale from 0 to 100 (SETVI) ([5]; 0.125 kg/ha of a.s.): 100
- control of weed grasses and broad-leaved plants [6]: very well controlled
